Laboratory results taken from patent US8557800B2, “Sphingosine kinase inhibitors” (Apogee Biotechnology Corporation, priority 2005, dated 2013).
Where two headings read alike, the source gives them in different places.

How the values were obtained:
[1] = tested on: MCF-7 human breast adenocarcinoma cells; assay: Cytotoxicity, SRB binding assay; assay type: cell-based
Method in brief: (§1)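 Cells exposed to varying compound doses for 48 h, then survival measured by sulforhodamine B staining. IC50 is the concentration giving 50% proliferation inhibition, in μM, as mean±sd of replicate trials.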

[2] = tested on: MCF-10A non-transformed human breast epithelial cells; assay: Cytotoxicity, SRB binding assay; assay type: cell-based; settings: 48 h
Method in brief: as §1

recombinant human SK = assay: Inhibition of recombinant human SK, LC/MS/MS assay; assay type: biochemical; settings: 6 μg/ml compound
Method in brief: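 Enzyme incubated with unlabeled sphingosine and ATP (1 mM, as in the radiometric format) for 30 min, then stopped and extracted with acetonitrile. S1P quantified by C8 reverse-phase HPLC–MS/MS against C17 sphingosine and C17 S1P internal standards using calibration curves.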

[3] = MCF7, inhibition of cell proliferation, 48 h, read-out: MCF-7 IC50
[4] = inhibition of cell proliferation, read-out: MCF-10A IC50

Row | Structure (SMILES) | IC50 [1, 3] | IC50 [2, 4] | Recombinant SK (% inhibition) (recombinant human SK) | IC50 ([1]; MCF7, 48 h, read-out: MCF-7 IC50 (μM)) | IC50 ([2]; read-out: MCF-10A IC50 (μM))
1 | COC(=O)C(C(=O)OC)C(=O)C12CC3CC(C1)CC(c1ccc(Cl)cc1)(C3)C2 [Compound 129, 2-[3-(4-Chloro-phenyl)-adamantane-1-carbonyl]-malonic acid dimethyl ester] | 16 µM | 105 µM | – | – | –
2 | CC(NC1CCN(C)CC1)C12CC3CC(CC(c4ccccc4)(C3)C1)C2 (stereo not drawn) [Compound 105, (1-Methyl-piperidin-4-yl)-[1-(3-phenyl-adamantan-1-yl)-ethyl]-amine] | 5 µM | 14 µM | – | – | –
3 | O=C(Nc1ccc(O)cc1)C12CC3CC(C1)CC(c1ccc(Cl)cc1)(C3)C2 [Compound 6, 3-(4-Chloro-phenyl)-adamantane-1-carboxylic acid (4-hydroxy-phenyl)-amide] | 5 µM | 15 µM | 72% | – | –
4 | O=C(Nc1nc2cc(Cl)ccc2o1)C12CC3CC(C1)CC(c1ccc(Cl)cc1)(C3)C2 [Compound 72, 3-(4-Chloro-phenyl)-adamantane-1-carboxylic acid (5-chloro-benzooxazol-2-yl)-amide] | 2 µM | 6 µM | 14% | – | –
5 | CN1CCN(NC(=O)C23CC4CC(C2)CC(c2ccc(Cl)cc2)(C4)C3)CC1 [Compound 52, 3-(4-Chloro-phenyl)-adamantane-1-carboxylic acid (4-methyl-piperazin-1-yl)-amide] | 10 µM | 15 µM | 54% | – | –
6 | Clc1ccc(-c2cnc(NCC34CC5CC(C3)CC(c3ccc(Cl)cc3)(C5)C4)s2)cc1 [Compound 90, [3-(4-Chloro-phenyl)-adamantan-1-ylmethyl]-[5-(4-chloro-phenyl)-thiazol-2-yl]-amine] | 96 µM | 107 µM | 26% | – | –
7 | N#CCc1ccc(NC(=O)C23CC4CC(CC(C4)C2)C3)cc1 [Compound 10, Adamantane-1-carboxylic acid (4-cyanomethyl-phenyl)-amide] | – | 170 µM | 3% | – | –
8 | O=C(Nc1nc(-c2ccc(Cl)cc2)cs1)C12CC3CC(CC(C3)C1)C2 [Compound 69, Adamantane-1-carboxylic acid [4-(4-chloro-phenyl)-thiazol-2-yl]-amide] | 30 µM | 106 µM | 40% | – | –
9 | CC(NC1CCN(C)CC1)C12CC3CC(CC(c4ccc(F)cc4)(C3)C1)C2 (stereo not drawn) [Compound 106, {1-[3-(4-Fluoro-phenyl)-adamantan-1-yl]-ethyl}-(1-methyl-piperidin-4-yl)-amine] | 2 µM | 6 µM | – | – | –
10 | CC(=O)C12CC3CC(C1)CC(c1ccccc1)(C3)C2 [Compound 125, 1-(3-Phenyl-adamantan-1-yl)-ethanone] | 8 µM | 59 µM | – | – | –
11 | O=C(O)C12CC3CC(C1)CC(c1ccc(F)cc1)(C3)C2 [Compound 122, 3-(4-Fluoro-phenyl)-adamantane-1-carboxylic acid] | 155 µM | 182 µM | – | – | –
12 | O=C(O)C12CC3CC(C1)CC(c1ccc(Cl)cc1)(C3)C2 [Compound 123, 3-(4-Chloro-phenyl)-adamantane-1-carboxylic acid] | 48 µM | 95 µM | – | – | –
13 | COC(=O)C(C(=O)OC)C(=O)C12CC3CC(CC(C3)C1)C2 [Compound 128, 2-(Adamantane-1-carbonyl)-malonic acid dimethyl ester] | 34 µM | 63 µM | – | – | –
14 | CC(=O)C12CC3CC(C1)CC(c1ccc(Cl)cc1)(C3)C2 [Compound 127, 1-[3-(4-Chloro-phenyl)-adamantan-1-yl]-ethanone] | 6 µM | 16 µM | – | – | –
15 | CC(=O)C12CC3CC(C1)CC(c1ccc(F)cc1)(C3)C2 [Compound 126, 1-[3-(4-Fluoro-phenyl)-adamantan-1-yl]-ethanone] | 2 µM | 6 µM | – | – | –
16 | CC(C)NC(C)C12CC3CC(CC(c4ccc(Cl)cc4)(C3)C1)C2 (stereo not drawn) [Compound 92, {1-[3-(4-Chloro-phenyl)-adamantan-1-yl]-ethyl}-isopropyl-amine] | 2 µM | 6 µM | – | – | –
17 | O=C(O)C12CC3CC(C1)CC(c1ccccc1)(C3)C2 [Compound 121, 3-Phenyl-adamantane-1-carboxylic acid] | 13 µM | 176 µM | – | – | –
18 | O=C(Nc1ncnc2[nH]cnc12)C12CC3CC(C1)CC(c1ccc(Cl)cc1)(C3)C2 [Compound 73, 3-(4-Chloro-phenyl)-adamantane-1-carboxylic acid (9H-purin-6-yl)-amide] | 80 µM | – | 53% | – | –
19 | O=C(Nc1ccc(O)cc1)C12CC3CC(CC(C3)C1)C2 [Compound 5, Adamantane-1-carboxylic acid (4-hydroxy-phenyl)-amide] | – | 30 µM | 100% | – | –

Row | Structure (SMILES) | IC50 [1, 3] | IC50 [2, 4] | Recombinant SK (% inhibition) (recombinant human SK) | IC50 ([1]; MCF7, 48 h, read-out: MCF-7 IC50 (μM)) | IC50 ([2]; read-out: MCF-10A IC50 (μM))
20 | CC(=O)C12CC3CC(CC(C3)C1)C2 [Compound 124, 1-Adamantan-1-yl-ethanone] | – | – | – | 11 µM | 105 µM
21 | CC(N)C12CC3CC(CC(c4ccc(Cl)cc4)(C3)C1)C2 (stereo not drawn) [Compound 91, 1-[3-(4-Chloro-phenyl)-adamantan-1-yl]-ethylamine] | 5 µM | 4 µM | – | – | –
22 | O=C(/C=C/c1ccc(Cl)nc1)C12CC3CC(C1)CC(c1ccc(Cl)cc1)(C3)C2 [Compound 134, 1-[3-(4-Chloro-phenyl)-adamantan-1-yl]-3-(6-chloro-pyridin-3-yl)-propenone] | 16 µM | – | 52% | – | –
23 | O=C(NC1CC1)C12CC3CC(C1)CC(c1ccc(Cl)cc1)(C3)C2 [Compound 2, 3-(4-Chloro-phenyl)-adamantane-1-carboxylic acid cyclopropylamide] | 20 µM | – | 0% | – | –
24 | CC(Nc1ccccc1)C12CC3CC(CC(c4ccc(Cl)cc4)(C3)C1)C2 (stereo not drawn) [Compound 95, {1-[3-(4-Chloro-phenyl)-adamantan-1-yl]-ethyl}-phenyl-amine] | 22 µM | 68 µM | – | – | –
25 | CN1CCC(NC(=O)C23CC4CC(CC(C4)C2)C3)CC1 [Compound 50, Adamantane-1-carboxylic acid (1-methyl-piperidin-4-yl)-amide] | 181 µM | – | 0% | – | –
26 | CC(NCc1ccccc1)C12CC3CC(CC(C3)C1)C2 (stereo not drawn) [Compound 96, (1-Adamantan-1-yl-ethyl)-benzyl-amine] | 9 µM | 9 µM | – | – | –
27 | CN(C)c1ccc(CNC(=O)C23CC4CC(C2)CC(c2ccc(Cl)cc2)(C4)C3)cc1 [Compound 31, 3-(4-Chloro-phenyl)-adamantane-1-carboxylic acid 4-dimethylamino-benzylamide] | 74 µM | – | 74% | – | –
28 | CS(=O)(=O)c1ccc(CNC(=O)C23CC4CC(C2)CC(c2ccc(Cl)cc2)(C4)C3)cc1 [Compound 30, 3-(4-Chloro-phenyl)-adamantane-1-carboxylic acid 4-methanesulfonyl-benzylamide] | 14 µM | – | 1% | – | –
29 | O=C(NCCc1ccc(Oc2ccccc2)cc1)C12CC3CC(C1)CC(c1ccc(Cl)cc1)(C3)C2 [Compound 47, 3-(4-Chloro-phenyl)-adamantane-1-carboxylic acid [2-(4-phenoxy-phenyl)-ethyl]-amide] | 16 µM | – | 26% | – | –
30 | CN1CCCC1CCNCC12CC3CC(C1)CC(c1ccc(Cl)cc1)(C3)C2 (stereo not drawn) [Compound 86, [3-(4-Chloro-phenyl)-adamantan-1-ylmethyl]-[2-(1-methyl-pyrrolidin-2-yl)-ethyl]-amine] | 5 µM | – | 6% | – | –
31 | CN1CCCC1CCNC(=O)C12CC3CC(CC(C3)C1)C2 (stereo not drawn) [Compound 56, Adamantane-1-carboxylic acid [2-(1-methyl-pyrrolidin-2-yl)-ethyl]-amide] | 10 µM | – | 33% | – | –
32 | Fc1cc(C(F)(F)F)ccc1CNCC12CC3CC(C1)CC(c1ccc(Cl)cc1)(C3)C2 [Compound 78, [3-(4-Chloro-phenyl)-adamantan-1-ylmethyl]-(2-fluoro-4-trifluoromethyl-benzyl)-amine] | 30 µM | – | 43% | – | –
33 | O=C(NCc1cc(F)c(F)c(F)c1)C12CC3CC(C1)CC(c1ccc(Cl)cc1)(C3)C2 [Compound 22, 3-(4-Chloro-phenyl)-adamantane-1-carboxylic acid 3,4,5-trifluoro-benzylamide] | 18 µM | – | 56% | – | –
34 | O=C(NCc1ccc(F)c(F)c1)C12CC3CC(C1)CC(c1ccc(Cl)cc1)(C3)C2 [Compound 21, 3-(4-Chloro-phenyl)-adamantane-1-carboxylic acid 3,4-difluoro-benzylamide] | 27 µM | – | 65% | – | –
35 | O=C(NCCCN1CCCC1)C12CC3CC(C1)CC(c1ccc(Cl)cc1)(C3)C2 [Compound 54, 3-(4-Chloro-phenyl)-adamantane-1-carboxylic acid (3-pyrrolidin-1-yl-propyl)-amide] | 11 µM | – | 95% | – | –
36 | O=C(NCc1ccc(F)c(Cl)c1)C12CC3CC(C1)CC(c1ccc(Cl)cc1)(C3)C2 [Compound 23, 3-(4-Chloro-phenyl)-adamantane-1-carboxylic acid 3-chloro-4-fluoro-benzylamide] | 23 µM | – | 0% | – | –
37 | CC(Nc1ccccc1)C12CC3CC(CC(c4ccccc4)(C3)C1)C2 (stereo not drawn) [Compound 93, Phenyl-[1-(3-phenyl-adamantan-1-yl)-ethyl]-amine] | 15 µM | – | 70% | – | –
38 | CC(NC(=O)C12CC3CC(C1)CC(c1ccc(Cl)cc1)(C3)C2)c1ccc(Cl)cc1 (stereo not drawn) [Compound 28, 3-(4-Chloro-phenyl)-adamantane-1-carboxylic acid [1-(4-chloro-phenyl)-ethyl]-amide] | 64 µM | – | 6% | – | –
